Test results reported in patent US20230000064A1, “OBSESSIVE-COMPULSIVE DISORDER ANIMAL MODEL AND PRODUCTION METHOD THEREOF” (KOREA UNIVERSITY RESEARCH AND BUSINESS FOUNDATION, priority 2019, published 2023).
“Also recorded” adds a separate entry of the source.

Key:
Assay type in all cases: in vivo
[1] = tested on: BLA-DMS neural circuit; assay: Hole board test in mice with chemogenetically (hM3Dq/CNO) activated BLA-DMS circuit
Experimental: A solution of clozapine N-oxide (CNO; Tocris, Bristol, United Kingdom) in saline was intraperitoneally injected to mice. Taking into account the time it takes for the drug to act, the experiment was started after about 30 minutes. The drug was injected at a dose of 1 mg/kg at the same time every day.
As a control for CNO, saline was used. Saline was also intraperitoneally injected at the same volume and the experiments were conducted in the same condition as for the CNO group.
A square acrylic plate with 9 holes (3 cm in diameter) was made to be 30 cm wide and 30 cm long. A home base was constructed with a material different from the acryl plate. Based on the home base, water was placed on the right end of the acrylic plate, and 10% sucrose was placed on the other side. Afterward, a mouse was placed in the home base and monitored for 1 hour under a video camera. Remaining amounts of sucrose and water were recorded after completion of the test.
In the present disclosure, mice were divided into two groups: saline-administered and CNO-administered groups and subjected to the test at the same time every day for 18 days. After a four-day learning period, the fourth day was used as the base. During this period, the mice located the water and 10% sucrose on the hole board. Saline and CNO were administered to each group for a total of 12 days from the 5th day to the 16th day. On the 17th day, it was observed whether the OCD phenomenon was maintained even in the absence of administration of saline and CNO. Finally, on the 18th day, the mice were measured for cognitive flexibility after switching the positions of water and 10% sucrose. The video between the base and the 18th day (base to day 14) was analyzed. The analysis items included checking behavior (repetitive checking), repetitive nose poking (repetitively inserting the nose into the hole), excessive grooming (excessive washing—hair trimming), and flexibility (cognitive flexibility).
As an analysis method, the video was analyzed with the naked eye through the blind test. Through the blind test, the objectivity of the experiment was secured by preventing the experimenter from knowing about the saline-administered group and the CNO-administered group. A measurement was made of: the frequency of going to water and sucrose for the checking behavior (repetitive checking); the number of actions of inserting the nose into each hole for repetitive nose poking (repeatedly inserting the nose into the hole); the total length of grooming (duration) and the total number of times (frequency) of the start and end of grooming for excessive grooming (excessive washing—hair trimming); and the number of times to go to water and sucrose where the positions of the 18th day (day 14) were reversed, for the flexibility (cognitive flexibility).
AAV-retro Cre virus, which can make a retrograde infection, was injected to the DMS while AAV-DIO-hM3Dq, which specifically expresses Cre, was injected into the BLA. That is, advantage was taken of the principle that when the retrograde virus from the DMS expresses Cre in the neuron cell body (soma) of the BLA, the AAV-DIO-hM3Dq virus is induced to express hM3Dq thereat only in the presence of Cre. hM3Dq can activate neurons in cooperation with the membrane protein GPCR (G-protein-coupled receptors) upon stimulation with the drug CNO (clozapine n-oxide), whereby the specific activation of the BLA-DMS neural circuit can be achieved. After injecting different viruses into these two areas, it takes more than 4 weeks for the viruses to show their activities.
After 4 weeks, the learning process was performed for the first 4 days on the hole board without injection of CNO (clozapine n-oxide). During this process, the mice identify and remember the location of the water and 10% sucrose. The BLA-DMS circuit was continuously activated by injecting CNO (1 mg/kg) at the same time every day for 12 days, using the behavioral values of the 4th day as a reference. […]

[2] = tested on: BLA-DMS neural circuit; assay: Hoarding test (two connected cages) in mice with activated BLA-DMS circuit; conditions: day 13 evening to day 14 morning, no administration; vs saline-administered group; FIGS. 12-14
Text: A tool was manufactured by connecting two cages, with a passage in the middle thereof. The cages each have a dimension of width 25 cm×length 20 cm×height 12 cm (Jeung Do PNP). For the passage, a PVC cylinder with a dimension of diameter 5 cm and length 19 cm was used. A hole with a diameter of 5 cm was drilled 1 cm above the bottom of each cage, and a sill was installed on the PVC so that the length of the passage was 9.5 cm when a PVC cylinder was inserted into the holes. Mice were placed one per cage. In order for the mouse to recognize one cage as a home cage, beddings were placed on only one cage and the other cage was left in the default state, and the passageway to the opposite side of the home cage was blocked for one day. Then the next evening, the food in the home cage was removed, foods and toys were placed on the other cage, and the blocked passage was opened. At this time, water was placed in the home cage. Differences between the groups were compared in how many food pellets and toys were brought to the home cage on the morning of the last day of the experiment. Quantification was made of the brought weight for food and the brought number for toys. […]

[3] = tested on: BLA-DMS neural circuit; assay: Observation of hairs around the mouth after the tests; conditions: 20 days after the last test day; vs saline-administered mice; FIG. 15
Text: Additionally, after 20 days from the last day, it was observed that the hairs around the mouth of the Clozapine n-oxide (CNO)-administered mice fell out, compared to the saline-administered mice, indicating a phenotype caused by excessive grooming (see FIG. 15).

[4] = CNO 1 mg/kg i.p. daily vs saline, repeated 1-way ANOVA, FIG. 8

## C[N+]1([O-])CCN(C2=Nc3cc(Cl)ccc3Nc3ccccc32)CC1 [CNO, clozapine N-oxide]
[1]; CNO 1 mg/kg i.p. daily for 12 days vs saline control, repeated 1-way ANOVA, FIG. 6
  checking frequency of heading toward 10% sucrose: significantly increased
[1]; CNO 1 mg/kg i.p. daily for 12 days vs saline-administered group, FIG. 6
  frequency of heading toward water (checking behavior): no difference
[1]; CNO 1 mg/kg i.p. daily vs saline, repeated 1-way ANOVA, FIG. 7
  repetitive nose poking frequency: greatly increased
[1]; [4]
  grooming frequency: significantly increased
  grooming time (duration): significantly increased
[1]; CNO vs saline-administered group, FIG. 9
  amount of 10% sucrose drank: no difference
[1]; day 13, saline and CNO not administered
  obsessive-compulsive disorder (checking and nose poking) on day 13 without administration: maintained
[1]; day 14 (18th day), vs saline-administered group, Student t-test, FIG. 10
  cognitive flexibility (times going to water and sucrose after positions swapped): significantly lower
[2]
  hoarding of food pellets brought to home cage: significantly increased
  hoarding of toys brought to home cage: significantly increased
[3]
  hairs around the mouth (phenotype caused by excessive grooming): fell out; also recorded: disappear
